In patent publication US9481676B2, “Azepino[4,5-B]indoles and methods of use” (Medivation Technologies, Inc., priority 2008, dated 2016) one finds inhibition data, which are given here for 36 molecules.

Structures are written as SMILES.

The target of this assay is T1, human recombinant serotonin (5-Hydroxytryptamine) 5-HT2A receptor (Homo sapiens, UniProt P28223).
T1 construct: expressed in transfected cells; host or cells: CHO-K1 cells
T1 sequence (P28223 whole entry): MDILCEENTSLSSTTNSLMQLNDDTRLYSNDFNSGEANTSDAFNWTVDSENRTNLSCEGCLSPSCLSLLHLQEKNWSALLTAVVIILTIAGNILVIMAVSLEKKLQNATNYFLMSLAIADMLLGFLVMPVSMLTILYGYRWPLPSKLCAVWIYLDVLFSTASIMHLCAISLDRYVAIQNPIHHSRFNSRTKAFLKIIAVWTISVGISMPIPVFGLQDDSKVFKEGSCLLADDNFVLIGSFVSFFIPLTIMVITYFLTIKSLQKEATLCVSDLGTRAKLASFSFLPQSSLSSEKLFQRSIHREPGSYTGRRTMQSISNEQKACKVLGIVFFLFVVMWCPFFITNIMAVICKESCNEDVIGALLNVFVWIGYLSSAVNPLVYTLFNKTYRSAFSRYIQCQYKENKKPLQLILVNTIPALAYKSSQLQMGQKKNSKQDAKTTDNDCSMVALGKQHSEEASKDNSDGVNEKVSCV
Briefly: Serotonin 5-HT2A radioligand binding ([3H]Ketanserin). To be noted: compound at 1 μM; read-out: Serotonin (1 μM) 5-HT2A, percent inhibition of specific binding. The method in brief:
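Percent inhibition of specific [3H]ketanserin (0.5 nM) binding, filtration read-out, with compounds at ≤1 μM (1% DMSO vehicle). Receptor source: recombinant human 5-HT2A in CHO-K1 cells, 50 mM Tris-HCl pH 7.4, 60 min, 25 °C; 1 μM mianserin gives nonspecific binding.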
Consider `Cc1ccc(C(O)Cn2c3c(c4cc(Cl)ccc42)CCN(C)CC3)cc1` (stereo not drawn) [Compound No. 26, 2-(9-chloro-2,3,4,5-tetrahydro-3-methylazepino[4,5-b]indol-6(1H)-yl)-1-p-tolylethanol], for which the inhibition at 1 µM stood at 100%. The value for `CN1CCc2c(n(CC(O)c3ccccc3)c3ccc(Cl)cc23)CC1` (stereo not drawn) [Compound No. 24, 2-(9-chloro-2,3,4,5-tetrahydro-3-methylazepino[4,5-b]indol-6(1H)-yl)-1-phenylethanol] was 98%; that for `C/C(=C\n1c2c(c3cc(Cl)ccc31)CCN(C)CC2)c1ccc(Cl)cc1Cl` [Compound No. 239, (E)-9-chloro-6-(2-(2,4-dichlorophenyl)prop-1-enyl)-3-methyl-1,2,3,4,5,6-hexahydroazepino[4,5-b]indole] was 102%.

Turning to `CN1CCc2c(n(CC(O)c3ccc(F)cc3)c3ccc(Cl)cc23)CC1` (stereo not drawn) [Compound No. 51, 2-(9-chloro-2,3,4,5-tetrahydro-3-methylazepino[4,5-b]indol-6(1H)-yl)-1-(4-fluorophenyl) ethanol], the inhibition at 1 µM came out at 97%. For `Cc1ccc2c(c1)c1c(n2CC(=O)N2CCOCC2)CCN(C)CC1` [Compound No. 38, 2-(2,3,4,5-tetrahydro-3,9-dimethylazepino[4,5-b]indol-6(1H)-yl)-1-morpholinoethanone], the inhibition at 1 µM came out at 96%. As to `Cc1ccc2c(c1)c1c(n2CC(O)c2ccc(F)cc2)CCN(C)CC1` (stereo not drawn) [Compound No. 52, 1-(4-fluorophenyl)-2-(2,3,4,5-tetrahydro-3,9-dimethylazepino[4,5-b]indol-6(1H)-yl)ethanol], the inhibition at 1 µM is 97%.

For the molecule `CN1CCc2c(n(CCc3ccccn3)c3ccc(Cl)cc23)CC1` [Compound No. 8, 9-chloro-1,2,3,4,5,6-hexahydro-3-methyl-6-(2-(pyridin-2-yl)ethyl)azepino[4,5-b]indole], the inhibition at 1 µM was 97%. The value for `Cc1ccc2c(c1)c1c(n2CCc2cncc(Cl)c2)CCN(C)CC1` [Compound No. 4, 6-(2-(5-chloropyridin-3-yl)ethyl)-1,2,3,4,5,6-hexahydro-3,9-dimethylazepino[4,5-b]indole] was 93%. `CN1CCc2c(n(CC(=O)N(C)C3CCCCC3)c3ccc(Cl)cc23)CC1` [Compound No. 74, 2-(9-chloro-2,3,4,5-tetrahydro-3-methylazepino[4,5-b]indol-6(1H)-yl)-N-cyclohexyl-N-methylacetamide]: the inhibition at 1 µM came out at 27%. The value for `CC(C)NC(=O)Cn1c2c(c3cc(Cl)ccc31)CCN(C)CC2` [Compound No. 31, 2-(9-chloro-2,3,4,5-tetrahydro-3-methylazepino[4,5-b]indol-6(1H)-yl)-N-isopropylacetamide] was 43%; that for `CN1CCc2c(n(CC(O)c3ccc(F)c(F)c3)c3ccc(Cl)cc23)CC1` (stereo not drawn) [Compound No. 58, 2-(9-chloro-2,3,4,5-tetrahydro-3-methylazepino[4,5-b]indol-6(1H)-yl)-1-(3,4-difluorophenyl)ethanol] was 100%. For `Cc1ccc2c(c1)c1c(n2CCc2ccccc2Cl)CCN(C)CC1` [Compound No. 69, 6-(2-chlorophenethyl)-1,2,3,4,5,6-hexahydro-3,9-dimethylazepino[4,5-b]indole], the inhibition at 1 µM was found to be 52%. As for `CN1CCc2c(n(CC(C)(O)c3ccc(F)cc3)c3ccc(Cl)cc23)CC1` (stereo not drawn) [Compound No. 13, 1-(9-chloro-2,3,4,5-tetrahydro-3-methylazepino[4,5-b]indol-6(1H)-yl)-2-(4-fluorophenyl)propan-2-ol], the inhibition at 1 µM worked out at 97%.

Regarding `C=C(Cn1c2c(c3cc(Cl)ccc31)CCN(C)CC2)c1ccc(Cl)cc1` [Compound No. 35, 9-chloro-6-(2-(4-chlorophenyl)allyl)-3-methyl-1,2,3,4,5,6-hexahydroazepino[4,5-b]indole], the inhibition at 1 µM came to 99%. Under `CN1CCc2c(n(CC(=O)N3CCCC3)c3ccc(Cl)cc23)CC1` [Compound No. 53, 2-(9-chloro-2,3,4,5-tetrahydro-3-methylazepino[4,5-b]indol-6(1H)-yl)-1-(pyrrolidin-1-yl)ethanone] stands 41%. Under `CN1CCc2c(n(CCc3ccccc3F)c3ccccc23)CC1` [Compound No. 237, 6-(2-fluorophenethyl)-3-methyl-1,2,3,4,5,6-hexahydroazepino[4,5-b]indole] stands 99%; under `Cc1ccc2c(c1)c1c(n2CC(=O)N2CCCC2)CCN(C)CC1` [Compound No. 45, 2-(2,3,4,5-tetrahydro-3,9-dimethylazepino[4,5-b]indol-6(1H)-yl)-1-(pyrrolidin-1-yl)ethanone], 22%. Under `CN1CCc2c(n(CC(=O)OCc3ccccc3)c3ccc(Cl)cc23)CC1` [Compound No. 75, Benzyl-2-(9-chloro-2,3,4,5-tetrahydro-3-methylazepino[4,5-b]indol-6(1H)-yl)acetate] stands 34%; under `CN1CCc2c(n(CCc3ccccc3)c3ccc(Cl)cc23)CC1` [Compound No. 56, 9-chloro-1,2,3,4,5,6-hexahydro-3-methyl-6-phenethylazepino[4,5-b]indole], 97%.

Take `Cc1ccc2c(c1)c1c(n2CC(=O)NC2CCCCC2)CCN(C)CC1` [Compound No. 22, N-cyclohexyl-2-(2,3,4,5-tetrahydro-3,9-dimethylazepino[4,5-b]indol-6(1H)-yl)acetamide]: the inhibition at 1 µM is -2%. Under `C/C(=C\n1c2c(c3cc(C)ccc31)CCN(C)CC2)c1ccc(Cl)cc1` [Compound No. 33, 6-((E)-2-(4-chlorophenyl)prop-1-enyl)-1,2,3,4,5,6-hexahydro-3,9-dimethylazepino[4,5-b]indole] stands 100%. The value for `Cc1ccc2c(c1)c1c(n2/C=C/c2ccc(Cl)cc2)CCN(C)CC1` [Compound No. 235, (E)-6-(4-chlorostyryl)-3,9-dimethyl-1,2,3,4,5,6-hexahydroazepino[4,5-b]indole] was 102%; that for `Cc1ccc2c(c1)c1c(n2CC(O)c2cccnc2)CCN(C)CC1` (stereo not drawn) [Compound No. 19, 2-(2,3,4,5-tetrahydro-3,9-dimethylazepino[4,5-b]indol-6(1H)-yl)-1-(pyridin-3-yl)ethanol] was 80%. With `COc1ccc(/C=C/n2c3c(c4cc(C)ccc42)CCN(C)CC3)c(F)c1` [Compound No. 230, (E)-6-(2-fluoro-4-methoxystyryl)-3,9-dimethyl-1,2,3,4,5,6-hexahydroazepino[4,5-b]indole], the inhibition at 1 µM came out at 97%. Take `CN1CCc2c(n(CC(O)c3ccncc3)c3ccc(Cl)cc23)CC1` (stereo not drawn) [Compound No. 42, 2-(9-chloro-2,3,4,5-tetrahydro-3-methylazepino[4,5-b]indol-6(1H)-yl)-1-(pyridin-4-yl)ethanol]: the inhibition at 1 µM is 95%. Turning to `CN1CCc2c(n(CCc3ccccc3Cl)c3ccc(Cl)cc23)CC1` [Compound No. 29, 6-(2-chlorophenethyl)-9-chloro-1,2,3,4,5,6-hexahydro-3-methylazepino[4,5-b]indole], the inhibition at 1 µM worked out at 100%. Under `COc1ccc(C(O)Cn2c3c(c4cc(Cl)ccc42)CCN(C)CC3)cc1F` (stereo not drawn) [Compound No. 67, 2-(9-chloro-2,3,4,5-tetrahydro-3-methylazepino[4,5-b]indol-6(1H)-yl)-1-(3-fluoro-4-methoxyphenyl) ethanol] stands 100%; under `CN1CCc2c(n(C#Cc3ccc(F)cc3)c3ccc(Cl)cc23)CC1` [Compound No. 281, 9-chloro-6-((4-fluorophenyl)ethynyl)-3-methyl-1,2,3,4,5,6-hexahydroazepino[4,5-b]indole], 100%; under `COc1ccc(C(O)Cn2c3c(c4cc(C)ccc42)CCN(C)CC3)cc1F` (stereo not drawn) [Compound No. 68, 1-(3-fluoro-4-methoxyphenyl)-2-(2,3,4,5-tetrahydro-3,9-dimethylazepino[4,5-b]indol-6(1H)-yl)ethanol], 99%. As to `Cc1ccc(CCn2c3c(c4cc(Cl)ccc42)CCN(C)CC3)cc1` [Compound No. 46, 9-chloro-3-methyl-6-(4-methylphenethyl)-1,2,3,4,5,6-hexahydroazepino[4,5-b]indole], the inhibition at 1 µM came to 100%.

`C/C(=C\n1c2c(c3cc(C)ccc31)CCN(C)CC2)c1ccc(Cl)cc1Cl` [Compound No. 238, (E)-6-(2-(2,4-dichlorophenyl)prop-1-enyl)-3,9-dimethyl-1,2,3,4,5,6-hexahydroazepino[4,5-b]indole]: the inhibition at 1 µM is 103%.

In the case of `CN1CCc2c(n(/C=C/c3ccc(F)cc3)c3ccc(Cl)cc23)CC1` [Compound No. 234, (E)-9-chloro-6-(4-fluorostyryl)-3-methyl-1,2,3,4,5,6-hexahydroazepino[4,5-b]indole], the inhibition at 1 µM was found to be 101%. The value for `Cc1ccc2c(c1)c1c(n2CCc2ccc(Cl)cc2)CCN(C)CC1` [Compound No. 28, 6-(4-chlorophenethyl)-1,2,3,4,5,6-hexahydro-3,9-dimethylazepino[4,5-b]indole] was 100%; that for `CN1CCc2c(n(CCc3ccc(C(=O)O)nc3)c3ccc(Cl)cc23)CC1` [Compound No. 21, 5-(2-(9-chloro-2,3,4,5-tetrahydro-3-methylazepino[4,5-b]indol-6(1H)-yl)ethyl)pyridine-2-carboxylic acid] was 8%. The value for `CN1CCc2c(n(CC(=O)Nc3ccccc3)c3ccc(Cl)cc23)CC1` [Compound No. 73, 2-(9-chloro-2,3,4,5-tetrahydro-3-methylazepino[4,5-b]indol-6(1H)-yl)-N-phenylacetamide] was 18%; that for `Cc1ccc2c(c1)c1c(n2CC(O)c2ccccc2)CCN(C)CC1` (stereo not drawn) [Compound No. 25, 2-(2,3,4,5-tetrahydro-3,9-dimethylazepino[4,5-b]indol-6(1H)-yl)-1-phenylethanol] was 97%.

A word on the inhibition: it is the change of the read-out against control, counted positive when it falls.
